Consider eight compounds from article PMC6204753, “Non-native autoinducer analogs capable of modulating the SdiA quorum sensing receptor in Salmonella enterica serovar Typhimurium” (Beilstein Journal of Organic Chemistry, 2018).

Data set [1] deals with T1, SdiA (Salmonella enterica subsp. enterica serovar Typhimurium, UniProt O66040). Details: method as in PMID 17085703. The conditions noted are these: racemates; cited from earlier work.
Data set [2] addresses T1, SdiA. Kind of data set: S. Typhimurium-pJNS25 SdiA reporter, competitive antagonism against 10 nM L-OOHL. The conditions noted are these: for inhibition at 1 µM: read-out: Antagonism 1 μM Inhibition (%); for inhibition at 100 µM: 100 μM compound, read-out: Antagonism 100 μM Inhibition (%). In kind it is cell-based. In short, it runs like this: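 S. Typhimurium-pJNS25 (native SdiA, srgE promoter–luxCDABE) subcultured 1:100 in LB and incubated 6 h at 37 °C, 200 rpm, with compound (1% DMSO); antagonism run against 10 nM L-OOHL. Luminescence normalised between 10 μM OOHL and 1% DMSO controls; triplicates; four-parameter dose–response fits.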

Data set [3] deals with T1, SdiA. Briefly: S. Typhimurium-pJNS25 SdiA reporter, agonism (luminescence). In kind it is cell-based. The note with it: for Emax: read-out: activation (%). From the text: Biological assays for SdiA activity. Cell-based reporter strains that rely on detecting the transcriptional activity of LuxR-type receptors are commonly used to assess the activity of exogenous ligands. We used the S. Typhimurium-pJNS25 reporter strain constructed by Smith and Ahmer and also used by Janssens et al. to examine SdiA activity. This strain naturally produces SdiA and contains a reporter plasmid with the promoter region for srgE fused to the luxABCDE operon of V. fischeri (see Experimental section for details of all strains and plasmids). SdiA activity is thus reported by the production of luciferase and resulting bioluminescence. We also prepared an SdiA reporter in E. coli (JLD271-pJN105SE-pSC11SE) to examine S. Typhimurium SdiA activity in an alternate background and with a different reporter gene output. […] This reporter construct uses an arabinose inducible promoter to produce S. Typhimurium SdiA and the promoter region for srgE fused to lacZ to report SdiA activity. SdiA activity is then measured using standard β-galactosidase assays. In both reporter strains, signal was normalized to the difference between the positive control (10 μM OOHL) and the negative control (1% DMSO; no compound).
Salmonella SdiA reporter assay. S. Typhimurium-pJNS25 was grown 16–18 h overnight in LB, diluted 1:100 in fresh LB medium, and then incubated for 6 h at 37 °C with shaking at 200 rpm in the presence of compounds (1% DMSO). […] All compounds were screened at 100 μM and 1 μM in triplicate in agonism and antagonism assays. […] Dose–response analyses were performed by preparing dilutions of compounds in DMSO and testing each concentration in the agonism or antagonism assays. Competition dose–response assays (data in Figure 5) were performed in the same manner as the antagonism assays, except instead of OOHL being added to the subculture, the antagonist being tested was added. Non-linear regression curve fits were generated using GraphPad Prism software (version 6) using variable slope (four parameter) dose–response analysis.

Data set [4] has as its target T2, S. Typhimurium SdiA (Salmonella enterica subsp. enterica serovar Typhimurium, UniProt O66040). Briefly: E. coli JLD271-pJN105SE-pSC11SE SdiA reporter, agonism. In kind it is cell-based. From the text:
Biological assays for SdiA activity. Cell-based reporter strains that rely on detecting the transcriptional activity of LuxR-type receptors are commonly used to assess the activity of exogenous ligands. We used the S. Typhimurium-pJNS25 reporter strain constructed by Smith and Ahmer and also used by Janssens et al. to examine SdiA activity. This strain naturally produces SdiA and contains a reporter plasmid with the promoter region for srgE fused to the luxABCDE operon of V. fischeri (see Experimental section for details of all strains and plasmids). SdiA activity is thus reported by the production of luciferase and resulting bioluminescence. We also prepared an SdiA reporter in E. coli (JLD271-pJN105SE-pSC11SE) to examine S. Typhimurium SdiA activity in an alternate background and with a different reporter gene output. E. coli JLD271 is the sdiA mutant of K-12 E. coli. […] SdiA activity is then measured using standard β-galactosidase assays. […]
E. coli SdiA reporter assay. […] A 50 μL aliquot of culture from each well was lysed in 200 μL of Z-buffer and 8 μL of chloroform, and a 100 μL aliquot of this lysate was incubated with 25 μL of 4 mg/mL ONPG for 20 min at 30 °C before reading absorption at 420 nm and 550 nm using a Biotek Synergy 2 plate reader. […]

Data set [5] addresses T1, SdiA. Kind of data set: Competition dose–response of OOHL (2) against antagonists in the S. Typhimurium SdiA reporter. Format: cell-based. As to the method: We also submitted compounds 11, R8, and F45 to competition-type assays in the S. Typhimurium SdiA reporter to further characterize their activity profiles. […] The results are shown in Figure 5 (EC50 and maximal activity values listed in Supporting Information File 3).
(§1) Salmonella SdiA reporter assay. S. Typhimurium-pJNS25 was grown 16–18 h overnight in LB, diluted 1:100 in fresh LB medium, and then incubated for 6 h at 37 °C with shaking at 200 rpm in the presence of compounds (1% DMSO). For antagonism assays, OOHL (2) at its EC90 (10 nM, 0.1% DMSO) was added to the subculture immediately prior to adding the compound for testing. All compounds were screened at 100 μM and 1 μM in triplicate in agonism and antagonism assays. Raw luminescence values were divided by the OD600 and then normalized to the controls; negative (DMSO) and positive (10 μM OOHL) control samples were included in every assay plate and used to normalize assay results, setting the positive control to 100% and the negative control to 0%. Luminescence was measured using a Biotek Synergy 2 plate reader and Gen 5 software (version 1.05). Dose–response analyses were performed by preparing dilutions of compounds in DMSO and testing each concentration in the agonism or antagonism assays. Competition dose–response assays (data in Figure 5) were performed in the same manner as the antagonism assays, except instead of OOHL being added to the subculture, the antagonist being tested was added. Non-linear regression curve fits were generated using GraphPad Prism software (version 6) using variable slope (four parameter) dose–response analysis.

In data set [6] the target is T2, S. Typhimurium SdiA. Kind of data set: E. coli JLD271-pJN105SE-pSC11SE SdiA reporter, antagonism (β-galactosidase). In kind it is cell-based. From the text:
Biological assays for SdiA activity. Cell-based reporter strains that rely on detecting the transcriptional activity of LuxR-type receptors are commonly used to assess the activity of exogenous ligands. We used the S. Typhimurium-pJNS25 reporter strain constructed by Smith and Ahmer and also used by Janssens et al. to examine SdiA activity. This strain naturally produces SdiA and contains a reporter plasmid with the promoter region for srgE fused to the luxABCDE operon of V. fischeri (see Experimental section for details of all strains and plasmids). SdiA activity is thus reported by the production of luciferase and resulting bioluminescence. We also prepared an SdiA reporter in E. coli (JLD271-pJN105SE-pSC11SE) to examine S. Typhimurium SdiA activity in an alternate background and with a different reporter gene output. E. coli JLD271 is the sdiA mutant of K-12 E. coli. This reporter construct uses an arabinose inducible promoter to produce S. Typhimurium SdiA and the promoter region for srgE fused to lacZ to report SdiA activity. SdiA activity is then measured using standard β-galactosidase assays. In both reporter strains, signal was normalized to the difference between the positive control (10 μM OOHL) and the negative control (1% DMSO; no compound).
E. coli SdiA reporter assay. The β-galactosidase assay using the E. coli SdiA reporter was performed as reported previously, with minor modifications. The reporter strain was grown 16–18 h overnight in LB, diluted 1:10 in fresh LB medium, and incubated at 37 °C with shaking at 200 rpm until it reached an OD600 of 0.25. Expression of SdiA was induced by the addition of 4 mg/mL arabinose, and the culture was incubated in the presence of compounds (1% DMSO) for 4 h at 37 °C with shaking at 200 rpm. […] A 50 μL aliquot of culture from each well was lysed in 200 μL of Z-buffer and 8 μL of chloroform, and a 100 μL aliquot of this lysate was incubated with 25 μL of 4 mg/mL ONPG for 20 min at 30 °C before reading absorption at 420 nm and 550 nm using a Biotek Synergy 2 plate reader. Non-linear regression curve fits were generated using GraphPad Prism software (version 6) using variable slope (four parameter) dose–response analysis.

In data set [7] the test system is S. Typhimurium-pJNS25. Format: cell-based. The note with it: 100 μM compound; footnote f: Cell growth inhibited at this compound concentration. Here is the method:
as §1

The mark [8] stands for this setting: 1 μM compound, average ± STD, change in activity from 10 nM 2 (OOHL).
Setting [9] is: average ± STD, change in activity from 10 nM 2 (OOHL).

The structures appear in SMILES notation. Like-named read-outs stand apart in the source and are kept apart here.

T2 sequence (O66040 entry or part of it): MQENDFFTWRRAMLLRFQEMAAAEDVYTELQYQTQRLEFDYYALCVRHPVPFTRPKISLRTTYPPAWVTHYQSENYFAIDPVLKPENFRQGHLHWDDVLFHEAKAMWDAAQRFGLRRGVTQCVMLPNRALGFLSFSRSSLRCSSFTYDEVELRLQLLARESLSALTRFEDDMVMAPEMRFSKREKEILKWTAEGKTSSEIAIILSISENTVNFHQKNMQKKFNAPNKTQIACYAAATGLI
T1 sequence (O66040 entry or part of it): as above

Take `CCCCCC(=O)CC(=O)NC1CCSC1=O` (racemic) [DL-3-oxo-C8 thiolactone]: in data set [1], the EC50 is 1 nM.
For the compound `CCCCCCCCCC(=O)NC1CCOC1=O` (racemic) [DL-DHL (C10)], the EC50 in data set [1] is 1000 nM.
For `CCCC(=O)CC(=O)NC1CCOC1=O` (racemic) [DL-OHHL (3-oxo-C6)], in data set [1], the EC50 is 5 nM.
As for `CCCCCCCC(=O)NC1CCOC1=O` (racemic) [DL-OHL (C8)], the EC50 in data set [1] was 7 nM.
For the compound `CCCCCC(=O)CC(=O)NC1CCOC1=O` (racemic) [DL-OOHL, N-(3-oxooctanoyl) DL-homoserine lactone], in data set [1], the EC50 is 3 nM.
Take `CCCCCC(=O)CC(=O)N[C@H]1CCOC1=O` [compound 2, reference compound]: the inhibition at 1 µM in data set [2] (setting [8]) is -2 ± 9%. Also, in data set [2] (setting [9]), the inhibition at 100 µM came to 9 ± 5%. In data set [3] (S. Typhimurium reporter), this compound had an EC90 of 10 nM. For the same compound, the EC50 stood at 1.03 nM in data set [3] (agonism dose–response, read-out: EC50); 1.5 nM in data set [4]; 1.03 nM in data set [5] (no antagonist (0)). In addition, the Emax in data set [3] (maximal activity (efficacy) from agonism dose–response, 10 μM OOHL = 100%, DMSO = 0%) came to 110%.
As to `O=C(CCCCCCCCCN=C=S)CC(=O)N[C@H]1CCOC1=O` [compound 11, reference compound], the IC50 in data set [6] stood at 380 nM; in data set [2] (against 10 nM L-OOHL), 318 nM; in data set [2] (against 10 nM L-OOHL (EC90)) it was 320 nM. For the same compound, in data set [6], the inhibition at 0.0015 µM is 130%. Further, in data set [6] (E. coli reporter, against OOHL at its EC50 (1.5 nM), NA = not active), the “inhibition (%)” value is “fully inhibit SdiA activity”. Further, the inhibition at 1 µM in data set [2] (setting [8]) is 64 ± 6%. Moreover, the inhibition at 100 µM in data set [2] (setting [9]) amounted to 128 ± 1%. For the same compound, in data set [3] (maximal activation of the antagonists (partial agonism), Table 3), the Emax is -33%. Besides, the “inhibition profile in competition assay (in words)” value in data set [5] (against OOHL (2)) was “both competitive and non-competitive inhibition”. The EC50 is 72.3 nM in data set [5] (antagonist at 0.1 μM), 220 nM in data set [5] (antagonist at 1 μM), 1310 nM in data set [5] (antagonist at 10 μM) and 4670 nM in data set [5] (antagonist at 100 μM).
Regarding `O=C1C=C(Br)C(=CBr)O1` [compound 21, reference compound], the “Antagonism 1 μM Inhibition (%)” value in data set [2] (setting [8]) was determined as 29 ± 13%. Further, the cell growth result in data set [7] is given as “--f”.
